From US9206201B2, “Boronic acid bearing liphagane compounds as inhibitors of P13K-α and/or β” (COUNCIL OF SCIENTIFIC & INDUSTRIAL RESEARCH, priority 2012, dated 2015)
Where two headings read alike, the source gives them in different places.

Legend:
[1] = system: human cancer cell lines; assay: In vitro cell line based anticancer activity, human cancer cell lines; details: 10 μM
Excerpt: (§1) The MTT assay (MTT Assay (Legrier M E, Yang C P, Yan H G et al. Targeting protein translation in human non small lung cancer via combined MEK and mammalian target of rapamycin suppression. Cancer Res 67:11300-8(2007).) is useful for measuring the effect of a wide range of compounds on the in vitro growth of either normal or cancer cell lines. The assay was set up in a 96-well, flat-bottomed polystyrene microtiter plate. 3-5000 cells were suspended per well in appropriate growth medium, and the cells were added to replicate wells (triplicates were preferred). It was preferable to add the cells to the required number of wells in the plate prior to adding the drugs or the test agents. After the cells were added to the plate, it was placed on the incubator for overnight incubation, while the agents to be tested were being prepared. After overnight incubation drugs or test compounds were added at defined concentrations to each set of replicate wells and incubated for 48 hrs in CO2 incubator. Most of these compounds were dissolved in dimethyl sulfoxide (DMSO) for the final addition. After 48 hr incubation, diluted the MTT stock solution ([…]) with an equal volume of tissue culture medium and added 20 μl of this solution directly to each well with a multichannel pipette. […] A standard micro plate reader with adjustable wavelength across the visible spectrum was used. […]

[2] = biological target: PI3Kβ (Homo sapiens (Human), UniProt P42338); assay: PI3K inhibition assay (PI3 Kinase activity/inhibitor assay kit), PI3Kβ; format: biochemical
Procedure: PI3K inhibition assay (PI3K Assay (Emmanuelle M, Huang […] et al. Targeting Protein Translation in Human Non-Small Cell Lung Cancer via Combined MEK and Mammalian Target of Rapamycin Suppression. Cancer Res 67:(23). (2007).) was carried out by PI3 Kinase activity/inhibitor assay kit, where PI3 kinase reaction was set up in Glutathione-coated strips/plate for inhibitor reaction. Kinase and inhibitors were pre-incubated for 10 minutes prior to the addition of PIP2 substrate. 5 μL of 5× kinase reaction buffer were added in each well followed by the further addition of 5 μL/well of PIP2 substrate. Then distilled H2O was added to each well so as to make up a final volume of 25 μL/well. Incubation was done at rt for 1 hour which was followed by washing the wells 3 times with 200 μL of 1×TBST per well and then 2 times with 200 μL of IX TBS per well. Then 100 μL of the Substrate TMB per well was added and then to keep for colour development in the dark for 5-20 minutes. However, appearance of the blue color to avoid over-development were monitored. 100 μL of the stop solution per well was used to stop the reaction. Readings were recorded at 450 nm. The IC50 value of a drug measures the effectiveness of a compound in inhibiting biological or biochemical function. […]

[3] = biological target: PI3Kα (Homo sapiens (Human), UniProt P42336); assay: PI3K inhibition assay (PI3 Kinase activity/inhibitor assay kit), PI3Kα; format: biochemical; details: read-out: IC50 against PI3Kα
[4] = system: caco-2; assay: MTT cytotoxic assay, colon (caco-2) cell line; parameters: species or system human; details: 48 h, read-out: cell based IC50 (MTT)
Excerpt: as §1

[5] = system: caco-2 colon human cancer cell line; assay: Annexin-V apoptotic assay by flow cytometry; format: cell-based; details: caco-2, under similar conditions, concentration not given
Procedure: The cell death status was analysed using Annexin-V (Annexin-V apoptotic assay (Yunqing Li, FadilaGuessous, SherwinKwon, Manish Kumar. PTEN Has Tumor-Promoting Properties in the Setting of Gain-of-Function p53 Mutations, 2008 Cancer Res; 68: (6) (2008).) Flow cytometery. The experiment was performed using caco-2 colon human cancer cell line. Cells were seeded in 6 well plates at the concentration of 2×10^5 cells/ml/well. Plates were incubated in CO2 incubator for overnight. After overnight incubation test sample(s) were added at desired concentration, sparing wells for negative and positive control and incubated for 48 hrs. After 48 hr incubation, cell were trypsinized and separately transferred into 15 ml centrifuge tubes. Tubes were centrifuged at 3000 rpm for 5 min. The supernatant was discarded and pellet was resuspended in 1 ml filtered PBS and centrifuged at 2000 rpm for 5 min. After 5 mins supernatant was discarded and pellet was resuspended in […] of 1× binding buffer to make cell suspension. From this suspension, 100 μl of cells is transferred in falcon tube and then 10 μl of propidium iodide (PI) and 5 μl Annexin-V antibody were added and incubated for 30 min in dark. After 30 min incubation in dark, apoptosis were analysed by flow cytometer (BD Biosciences).
Overall, there was a concentration dependent net increase in late apoptotic cell population (FIG. 7).

[6] = system: caco-2, colon human cancer cell line; assay: Cell cycle analysis by flow cytometry (propidium iodide); format: cell-based; details: caco-2, under similar conditions, concentration not given
Procedure: Analysis (Cell cycle (Waxman D J, Schwartz P S, Harnessing apoptosis for improved anti-cancer gene therapy, Cancer Res. 63:8563-8572(2003).) of a population of cells replication state can be achieved by fluorescence labeling of the nuclei of cells in suspension and then analyzing the fluorescence properties of each cell in the population. The experiment was performed using caco-2, colon human cancer cell line. Cells were seeded in 6 well plates at the concentration of 3×10^5 cells/ml/well. Plate was incubated in CO2 incubator for overnight. After overnight incubation test sample(s) were added at desired concentration, sparing wells for negative and positive control and incubated for 24 hrs. After 24 hr incubation, cell were trypsinized along with test sample from each well was extracted using a micropippete and separately transferred into 15 ml centrifuge tubes. Tubes were centrifuged at 3000 rpm for 5 min. […] Reading was taken on flow cytometer (BD Biosciences).
Results: Cell cycle is the life cycle of a cell. […] In the present study, the effect of compound E on the DNA content by cell cycle phase distribution was assessed by using colon (caco-2) cell line. […] Cells (2×10^6/ml/6-well plate), exposed to different concentrations of compound E were stained with propidium iodide (PI) to determine DNA fluorescence and cell cycle phase distribution. […]

[7] = system: pAkt (Ser 473) in CACO-2 cells; assay: Immunofluorescence microscopic analysis of pAKT (serine 473); format: cell-based, human; details: 4 μM, 24 hr
Procedure: For immunofluorescence microscopic analysis, 4×10^4 CACO-2 cells/ml were seeded on 18-mm coverslips in 6-well plates, one day before experiment. […] Following treatment, cells were washed in PBS, followed by fixation in absolute methanol at −20° C. for 5 min^19. The fixed cells were blocked with 10% goat serum in PBS for 20 min at room temperature to eliminate non-specific binding of secondary antibody. Cells were incubated with polyclonal rabbit pAKT (serine 473) primary antibody (1:100 in 0.5% BSA in PBS; Santa Cruz Biotechnology) for 1 h at 25° C. in moist chamber, then washed and incubated with secondary antibody. The cells were washed and incubated for 45 min with a Texas red-conjugated goat antirabbit antibody (1:500 in 0.5% BSA in PBS; Santa Cruz Biotechnology) at 25° C. The coverslips were mounted on glass slides with 4′,6-diamidino-2-phenylindole-containing ProLong Gold Antifade mounting medium (Invitrogen) and visualized by fluorescence microscope (Olympus, IX81) under an Olympus 60× oil immersion objective lens. The negative controls were also used in which incubation of cells with primary antibody was omitted.
Results: Phosphorylation (activation) of Akt is associated with protection of cells from apoptosis^20 (K. Nicholson, N. Anderson. 2002. The protein kinase B/Akt signaling pathway in human malignancy. Cell signal 14: 381-395). […]

[8] = biological target: PI3K γ (Homo sapiens (Human), UniProt P48736); assay: PI3K inhibition assay, PI3K γ isoform; format: biochemical
Procedure: (§2) PI3K inhibition assay (PI3K Assay (Emmanuelle M, Huang Y, Yan H G et al. Targeting Protein Translation in Human Non-Small Cell Lung Cancer via Combined MEK and Mammalian Target of Rapamycin Suppression. Cancer Res 67:(23). (2007).) was carried out by PI3 Kinase activity/inhibitor assay kit, where PI3 kinase reaction was set up in Glutathione-coated strips/plate for inhibitor reaction. Kinase and inhibitors were pre-incubated for 10 minutes prior to the addition of PIP2 substrate. 5 μL of 5× kinase reaction buffer were added in each well followed by the further addition of 5 μL/well of PIP2 substrate. Then distilled H2O was added to each well so as to make up a final volume of 25 μL/well. Incubation was done at rt for 1 hour which was followed by washing the wells 3 times with 200 μL of 1×TBST per well and then 2 times with 200 μL of IX TBS per well. Then 100 μL of the Substrate TMB per well was added and then to keep for colour development in the dark for 5-20 minutes. However, appearance of the blue color to avoid over-development were monitored. 100 μL of the stop solution per well was used to stop the reaction. Readings were recorded at 450 nm.

[9] = biological target: PI3K δ (Homo sapiens (Human), UniProt O00329); assay: PI3K inhibition assay, PI3K δ isoform; format: biochemical
Procedure: as §2

PI3Kβ, sequence (P42338 whole entry): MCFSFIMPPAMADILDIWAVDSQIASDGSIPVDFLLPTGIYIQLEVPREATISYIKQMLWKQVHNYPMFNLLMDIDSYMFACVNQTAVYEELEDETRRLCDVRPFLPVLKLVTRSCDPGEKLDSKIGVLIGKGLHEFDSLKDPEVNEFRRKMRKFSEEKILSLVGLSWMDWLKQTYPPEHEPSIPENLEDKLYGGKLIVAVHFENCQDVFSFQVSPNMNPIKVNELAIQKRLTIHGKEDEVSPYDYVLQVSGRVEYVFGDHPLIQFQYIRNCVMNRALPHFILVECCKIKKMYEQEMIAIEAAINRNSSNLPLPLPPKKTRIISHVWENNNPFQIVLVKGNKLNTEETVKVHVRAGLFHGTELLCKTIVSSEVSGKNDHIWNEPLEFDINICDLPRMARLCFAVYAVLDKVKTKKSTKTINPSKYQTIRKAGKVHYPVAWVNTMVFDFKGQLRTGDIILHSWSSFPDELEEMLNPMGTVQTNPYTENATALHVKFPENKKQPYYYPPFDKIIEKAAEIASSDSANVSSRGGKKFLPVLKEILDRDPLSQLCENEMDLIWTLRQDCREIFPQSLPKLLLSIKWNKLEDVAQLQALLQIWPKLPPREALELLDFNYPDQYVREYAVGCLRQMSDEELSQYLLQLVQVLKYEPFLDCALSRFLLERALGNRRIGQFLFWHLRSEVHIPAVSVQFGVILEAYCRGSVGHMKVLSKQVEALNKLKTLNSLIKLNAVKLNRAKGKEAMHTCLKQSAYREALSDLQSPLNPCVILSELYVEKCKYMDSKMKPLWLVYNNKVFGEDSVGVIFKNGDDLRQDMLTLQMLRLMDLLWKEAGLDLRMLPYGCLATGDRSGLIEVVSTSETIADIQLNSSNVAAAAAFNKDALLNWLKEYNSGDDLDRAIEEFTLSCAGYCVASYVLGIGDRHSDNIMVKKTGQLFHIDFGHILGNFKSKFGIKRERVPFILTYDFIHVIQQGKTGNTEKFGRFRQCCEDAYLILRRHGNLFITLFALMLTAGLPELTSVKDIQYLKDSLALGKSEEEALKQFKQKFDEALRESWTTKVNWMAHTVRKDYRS
PI3Kβ, sequence (P27986 whole entry partner): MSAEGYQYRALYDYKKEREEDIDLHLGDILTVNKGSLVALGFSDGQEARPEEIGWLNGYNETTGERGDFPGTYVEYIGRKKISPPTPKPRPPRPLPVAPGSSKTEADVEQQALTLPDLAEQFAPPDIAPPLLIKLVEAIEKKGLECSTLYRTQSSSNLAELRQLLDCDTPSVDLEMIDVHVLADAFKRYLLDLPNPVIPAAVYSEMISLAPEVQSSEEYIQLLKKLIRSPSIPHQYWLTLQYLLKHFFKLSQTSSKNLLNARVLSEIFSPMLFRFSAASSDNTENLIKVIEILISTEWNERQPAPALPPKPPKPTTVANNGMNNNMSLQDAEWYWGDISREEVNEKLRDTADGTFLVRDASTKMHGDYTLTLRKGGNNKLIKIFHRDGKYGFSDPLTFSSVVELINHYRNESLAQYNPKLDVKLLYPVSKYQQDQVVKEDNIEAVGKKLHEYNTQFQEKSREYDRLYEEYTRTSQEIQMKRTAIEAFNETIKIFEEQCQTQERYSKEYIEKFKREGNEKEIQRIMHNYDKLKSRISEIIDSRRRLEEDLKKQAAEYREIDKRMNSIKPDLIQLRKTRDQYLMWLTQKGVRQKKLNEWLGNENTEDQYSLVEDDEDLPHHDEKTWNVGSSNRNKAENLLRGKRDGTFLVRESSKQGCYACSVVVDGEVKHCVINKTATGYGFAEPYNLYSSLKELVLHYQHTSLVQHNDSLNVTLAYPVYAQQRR
PI3Kα, sequence (P42336 whole entry, looked up): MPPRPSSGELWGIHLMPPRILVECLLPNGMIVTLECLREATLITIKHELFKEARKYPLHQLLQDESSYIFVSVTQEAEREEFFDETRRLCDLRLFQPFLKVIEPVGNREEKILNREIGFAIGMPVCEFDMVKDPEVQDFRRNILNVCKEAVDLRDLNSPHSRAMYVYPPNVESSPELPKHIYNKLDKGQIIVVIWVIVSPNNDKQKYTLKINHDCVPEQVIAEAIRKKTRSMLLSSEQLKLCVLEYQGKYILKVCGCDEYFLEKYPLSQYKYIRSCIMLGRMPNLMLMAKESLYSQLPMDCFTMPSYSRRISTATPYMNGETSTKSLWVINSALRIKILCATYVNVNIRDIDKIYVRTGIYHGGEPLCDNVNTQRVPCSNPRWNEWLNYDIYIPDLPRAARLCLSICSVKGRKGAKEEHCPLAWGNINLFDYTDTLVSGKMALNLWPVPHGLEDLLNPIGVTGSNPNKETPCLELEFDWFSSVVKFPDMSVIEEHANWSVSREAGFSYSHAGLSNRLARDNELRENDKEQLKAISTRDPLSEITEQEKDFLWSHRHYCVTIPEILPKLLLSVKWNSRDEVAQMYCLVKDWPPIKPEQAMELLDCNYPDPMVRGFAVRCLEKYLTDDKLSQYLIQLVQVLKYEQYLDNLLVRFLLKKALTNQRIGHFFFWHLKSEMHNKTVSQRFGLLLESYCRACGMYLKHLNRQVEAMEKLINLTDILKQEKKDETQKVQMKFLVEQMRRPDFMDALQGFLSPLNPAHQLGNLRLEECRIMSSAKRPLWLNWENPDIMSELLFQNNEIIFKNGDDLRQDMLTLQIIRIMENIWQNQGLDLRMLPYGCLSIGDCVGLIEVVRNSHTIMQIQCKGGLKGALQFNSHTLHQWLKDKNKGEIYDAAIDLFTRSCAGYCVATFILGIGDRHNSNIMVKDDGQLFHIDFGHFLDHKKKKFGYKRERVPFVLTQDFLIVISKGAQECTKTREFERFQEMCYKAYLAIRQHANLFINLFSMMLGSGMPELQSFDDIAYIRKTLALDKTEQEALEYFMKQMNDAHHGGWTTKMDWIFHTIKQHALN
PI3Kα, sequence (P27986 whole entry partner, looked up): as the sequence (P27986 whole entry partner) above
PI3K γ, sequence (P48736 whole entry, canonical isoform): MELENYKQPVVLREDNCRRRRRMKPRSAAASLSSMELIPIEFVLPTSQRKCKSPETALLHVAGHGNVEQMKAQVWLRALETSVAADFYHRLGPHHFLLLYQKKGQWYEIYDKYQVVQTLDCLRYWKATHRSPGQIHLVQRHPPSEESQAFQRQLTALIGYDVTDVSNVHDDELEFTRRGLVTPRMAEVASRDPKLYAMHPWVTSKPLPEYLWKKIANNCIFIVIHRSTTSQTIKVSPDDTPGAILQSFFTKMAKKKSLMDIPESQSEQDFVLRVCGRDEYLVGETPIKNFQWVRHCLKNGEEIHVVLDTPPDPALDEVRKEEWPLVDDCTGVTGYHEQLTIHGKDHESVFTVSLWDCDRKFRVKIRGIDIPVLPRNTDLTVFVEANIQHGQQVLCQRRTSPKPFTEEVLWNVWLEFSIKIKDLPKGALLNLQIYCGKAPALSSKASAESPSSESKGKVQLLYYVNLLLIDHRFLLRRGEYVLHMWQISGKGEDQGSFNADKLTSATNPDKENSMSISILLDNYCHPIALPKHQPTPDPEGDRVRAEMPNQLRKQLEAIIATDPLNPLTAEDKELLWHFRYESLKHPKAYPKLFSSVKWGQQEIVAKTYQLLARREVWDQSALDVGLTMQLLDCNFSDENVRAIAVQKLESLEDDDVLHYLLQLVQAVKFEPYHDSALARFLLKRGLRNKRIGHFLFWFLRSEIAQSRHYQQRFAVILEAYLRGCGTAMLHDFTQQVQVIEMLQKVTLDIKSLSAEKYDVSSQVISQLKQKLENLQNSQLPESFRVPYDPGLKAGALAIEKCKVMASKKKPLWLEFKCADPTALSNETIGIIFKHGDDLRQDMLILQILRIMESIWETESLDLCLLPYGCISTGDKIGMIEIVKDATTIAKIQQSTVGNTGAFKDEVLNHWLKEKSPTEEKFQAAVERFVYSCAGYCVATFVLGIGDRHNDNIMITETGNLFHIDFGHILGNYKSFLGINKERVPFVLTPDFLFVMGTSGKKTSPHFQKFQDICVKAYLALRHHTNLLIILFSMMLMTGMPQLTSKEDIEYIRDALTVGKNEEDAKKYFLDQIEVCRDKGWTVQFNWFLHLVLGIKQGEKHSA
PI3K δ, sequence (O00329 whole entry, canonical isoform): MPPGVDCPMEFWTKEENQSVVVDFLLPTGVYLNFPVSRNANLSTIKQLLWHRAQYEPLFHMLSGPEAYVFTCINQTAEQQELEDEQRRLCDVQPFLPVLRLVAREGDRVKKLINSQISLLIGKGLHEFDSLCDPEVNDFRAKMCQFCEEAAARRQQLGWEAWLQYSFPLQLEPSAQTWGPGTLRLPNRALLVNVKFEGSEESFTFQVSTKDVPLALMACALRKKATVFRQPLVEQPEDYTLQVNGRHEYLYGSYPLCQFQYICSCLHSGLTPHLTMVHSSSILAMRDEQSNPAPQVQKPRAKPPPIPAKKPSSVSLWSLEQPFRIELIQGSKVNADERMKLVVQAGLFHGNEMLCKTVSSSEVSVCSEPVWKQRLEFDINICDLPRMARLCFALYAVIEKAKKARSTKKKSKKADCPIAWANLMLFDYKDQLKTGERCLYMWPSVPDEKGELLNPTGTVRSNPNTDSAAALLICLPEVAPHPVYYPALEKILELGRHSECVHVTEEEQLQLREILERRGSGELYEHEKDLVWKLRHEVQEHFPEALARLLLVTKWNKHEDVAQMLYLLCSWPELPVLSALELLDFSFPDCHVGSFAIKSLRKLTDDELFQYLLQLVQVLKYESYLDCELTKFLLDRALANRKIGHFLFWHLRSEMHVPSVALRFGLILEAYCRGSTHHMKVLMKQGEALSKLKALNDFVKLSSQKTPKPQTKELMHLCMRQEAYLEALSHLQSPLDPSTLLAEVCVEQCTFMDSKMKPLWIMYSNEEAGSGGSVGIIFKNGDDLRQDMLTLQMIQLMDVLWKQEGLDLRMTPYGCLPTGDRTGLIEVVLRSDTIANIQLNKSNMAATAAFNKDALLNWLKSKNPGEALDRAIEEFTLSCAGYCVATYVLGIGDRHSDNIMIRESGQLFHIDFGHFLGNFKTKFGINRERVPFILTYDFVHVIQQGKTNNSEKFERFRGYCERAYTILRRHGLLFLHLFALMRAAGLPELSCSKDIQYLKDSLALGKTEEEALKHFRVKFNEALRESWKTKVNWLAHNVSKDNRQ
PI3K δ, sequence (P27986 whole entry partner, canonical isoform): as the sequence (P27986 whole entry partner) above

| Compound | optimal growth inhibition [1] | IC50 ([2]; read-out: IC50 against PI3Kβ) | IC50 [3] | IC50 [4] | percentage of cells in late apoptotic phase [5] | percentage of cells in sub-G0 phase [6] | effect on pAkt (Ser 473) [7] | IC50 [8] | IC50 [9] | IC50 ([2]; read-out: PI3K (IC50) β) |
| --- | --- | --- | --- | --- | --- | --- | --- | --- | --- | --- |
| C=C(CC/C=C(\C)CCC=C(C)C)c1cc2cc(OC)c(OC)cc2o1 [Compound A] | > 74% | 0.1 µM | 0.14 µM | 2.4 µM |  |  |  |  |  |  |
| Liphagal |  |  |  |  | 42.7% | 64.9% | inhibition of pAKT |  |  |  |
| CC1(C)CCCC2(C)c3c(oc4c(B(O)O)c(O)c(O)cc34)CCC12 (centres unmarked) [Compound AZ] |  |  | 0.023 µM |  |  |  |  | 85.4 µM | 303 µM | 5.7 µM |
